Experimental data from patent publication US11655235B2, “Pyrrolidine and piperidine compounds” (YUHAN CORPORATION, priority 2019, dated 2023).

Experiments:
Recombinant human FAP = biological target: T1, Recombinant human FAP (Homo sapiens, UniProt Q12884); experiment: FAP inhibition, fluorogenic substrate Z-Gly-Pro-AMC; format: biochemical; conditions: for IC50: 25° C., Z-Gly-Pro-AMC substrate; for inhibition at 1 µM: read-out: hFAP inhibition % at 1 μM
T1 construct: purchased R&D systems
T1 sequence (Q12884 1-760): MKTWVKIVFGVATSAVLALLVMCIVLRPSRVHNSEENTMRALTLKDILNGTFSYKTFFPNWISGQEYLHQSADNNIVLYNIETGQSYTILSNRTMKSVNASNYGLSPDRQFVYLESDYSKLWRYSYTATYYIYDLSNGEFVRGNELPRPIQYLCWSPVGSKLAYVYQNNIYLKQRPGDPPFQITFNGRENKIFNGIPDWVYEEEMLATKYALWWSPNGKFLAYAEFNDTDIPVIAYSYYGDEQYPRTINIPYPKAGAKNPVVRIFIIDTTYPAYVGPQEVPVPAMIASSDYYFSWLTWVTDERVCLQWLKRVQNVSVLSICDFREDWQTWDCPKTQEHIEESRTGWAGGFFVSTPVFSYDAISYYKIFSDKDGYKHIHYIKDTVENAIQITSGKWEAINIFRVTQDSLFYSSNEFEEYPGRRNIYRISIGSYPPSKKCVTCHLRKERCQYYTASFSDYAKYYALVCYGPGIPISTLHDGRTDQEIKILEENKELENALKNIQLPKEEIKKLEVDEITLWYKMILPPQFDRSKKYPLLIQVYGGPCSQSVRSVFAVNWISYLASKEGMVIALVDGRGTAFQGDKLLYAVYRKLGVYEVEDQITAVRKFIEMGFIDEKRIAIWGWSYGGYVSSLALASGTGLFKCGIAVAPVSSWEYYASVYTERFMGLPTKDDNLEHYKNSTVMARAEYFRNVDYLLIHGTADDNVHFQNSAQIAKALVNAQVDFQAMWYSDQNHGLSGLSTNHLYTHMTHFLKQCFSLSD
Procedure: The compounds according to the present technology were evaluated in terms of the inhibitory effect on the activity of dipeptidyl peptidases including FAP by using a substrate producing fluorescent substances upon enzymatic decomposition. The test was conducted at 25° C. to get a final reaction volume of 100 μL in a 96 black well plate. […] Briefly, the test compounds were dissolved in dimethyl sulfoxide (DMSO) at a concentration of 20 mM and then subjected to serial dilution, thereby creating an 8 point curve. As for the control group, a 6 point curve created by serial dilution of Talabostat in the same buffer solution was used. Fluorescence intensity was measured using a microplate reader (Flexstation3, Molecular Devices) under the wavelength condition exciting at 380 nm and reading the emission at 460 nm. The inhibitory effect of the test compounds was measured as a decrease (%) in the signal rate as compared to the control group without any inhibitor. Data was fixed to a logistic model with four variables and IC50 value was calculated using GraphPad Prism program. Recombinant human FAP (R&D systems) was diluted with 50 mM tris (pH 7.5) buffer comprising 1 M of sodium chloride and 1 mg/ml of bovine serum albumin (BSA) to be 10 ng per final reaction. The test compounds were subjected to serial dilution in a buffer under the condition containing up to 0.1% of DMSO. Z-Gly-Pro-AMC (Bachem) was used as a substrate. By dissolving in DMSO and then diluting in the same buffer, the substrate was added to be […] per final reaction.

DPP4 = DPP4 (Homo sapiens, UniProt P27487); experiment: DPP4 inhibition, fluorogenic substrate H-Gly-Pro-AMC; format: biochemical; set-up: purchased R&D Systems; conditions: for inhibition at 1 µM: read-out: hDPP4 inhibition % at 1 μM
Sequence of DPP4 (P27487 whole entry): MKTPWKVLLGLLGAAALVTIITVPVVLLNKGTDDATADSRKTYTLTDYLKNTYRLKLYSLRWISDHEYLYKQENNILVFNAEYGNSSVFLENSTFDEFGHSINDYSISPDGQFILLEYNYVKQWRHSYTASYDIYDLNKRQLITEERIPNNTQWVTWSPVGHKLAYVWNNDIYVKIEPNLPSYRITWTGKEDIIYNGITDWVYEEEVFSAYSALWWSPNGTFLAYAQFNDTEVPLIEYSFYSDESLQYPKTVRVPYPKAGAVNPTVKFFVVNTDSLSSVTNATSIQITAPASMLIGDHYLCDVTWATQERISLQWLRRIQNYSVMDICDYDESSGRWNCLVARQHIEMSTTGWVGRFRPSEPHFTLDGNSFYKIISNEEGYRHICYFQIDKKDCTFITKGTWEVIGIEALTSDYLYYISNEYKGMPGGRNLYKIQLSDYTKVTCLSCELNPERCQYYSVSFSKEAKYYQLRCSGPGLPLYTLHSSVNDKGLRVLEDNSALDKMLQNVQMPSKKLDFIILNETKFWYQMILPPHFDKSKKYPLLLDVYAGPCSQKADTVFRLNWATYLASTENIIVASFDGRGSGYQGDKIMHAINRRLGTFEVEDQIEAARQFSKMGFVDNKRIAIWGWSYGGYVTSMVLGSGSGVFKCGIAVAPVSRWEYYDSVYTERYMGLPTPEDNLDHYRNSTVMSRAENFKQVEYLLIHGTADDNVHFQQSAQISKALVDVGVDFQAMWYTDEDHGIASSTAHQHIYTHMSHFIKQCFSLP
Procedure: The compounds according to the present technology were evaluated in terms of the inhibitory effect on the activity of dipeptidyl peptidases including FAP by using a substrate producing fluorescent substances upon enzymatic decomposition. The test was conducted at 25° C. to get a final reaction volume of 100 μL in a 96 black well plate. […] Briefly, the test compounds were dissolved in dimethyl sulfoxide (DMSO) at a concentration of 20 mM and then subjected to serial dilution, thereby creating an 8 point curve. As for the control group, a 6 point curve created by serial dilution of Talabostat in the same buffer solution was used. Fluorescence intensity was measured using a microplate reader (Flexstation3, Molecular Devices) under the wavelength condition exciting at 380 nm and reading the emission at 460 nm. The inhibitory effect of the test compounds was measured as a decrease (%) in the signal rate as compared to the control group without any inhibitor. Data was fixed to a logistic model with four variables and IC50 value was calculated using GraphPad Prism program. As for recombinant human DPP4 (R&D Systems), 25 mM tris (pH 8.0) buffer as a buffer solution and H-Gly-Pro-AMC (Bachem) as a substrate were used. As for recombinant human DPP7 (R&D Systems), 25 mM MES (pH 6.0) buffer as a buffer solution and Lys-Pro-AMC (Bachem) as a substrate were used. As for recombinant human DPP8 (PBS Bioscience), as a buffer solution, a 10 mM tris (pH 7.4) buffer comprising 10 mM of magnesium chloride and 0.05% of Tween 20, and Z-Ala-Pro-AMC (BPS Bioscience) as a substrate were used. As for recombinant human DPP9 (R&D Systems), a 25 mM tris (pH 8.0) buffer as a buffer solution and H-Gly-Pro-AMC (Bachem) as a substrate were used. As for recombinant human PREP (R&D System), as a buffer solution, a 25 mM tris (pH 7.5) buffer comprising 250 mM sodium chloride and 2.5 mM DTT (Dithiolthreitol), and Z-Gly-Pro-AMC (Bachem) as a substrate were used. The evaluation was made by using 10 ng of DPP4, PDD7, and PREP, 20 ng of DPP8, and 50 ng of DPP9 based on the final reaction. In the evaluation of DPP4, the test compounds were subjected to serial dilution in a buffer under the condition containing up to 0.1% of DMSO. In the evaluation of DPP7, DPP8, DPP9, and PREP, the test compounds were subjected to serial dilution in each buffer under the condition containing up to 0.5% of DMSO.

Row | Structure (SMILES) | IC50 (Recombinant human FAP) | inhibition at 1 µM (DPP4) | hDPP4 inhibition % at 1 μM (DPP4) | inhibition at 1 µM (Recombinant human FAP)
1 | COc1cccc2c(C(=O)N[C@H]3CCN(CC(=O)N4CCC[C@H]4C#N)C3)coc12 [Example 47, N—((S)-1-(2-((S)-2-cyanopyrrolidin-1-yl)-2-oxoethyl)pyrrolidin-3-yl)-7-methoxybenzofuran-3-carboxamide] | 18.8 nM | 3.7% |  | 
2 | N#C[C@@H]1CCCN1C(=O)CN1CC[C@H](NC(=O)c2coc3c(F)cccc23)C1 [Example 50, N—((S)-1-(2-((S)-2-cyanopyrrolidin-1-yl)-2-oxoethyl)pyrrolidin-3-yl)-7-fluorobenzofuran-3-carboxamide] | 16.4 nM |  | No inhibition** | 
3 | Cc1ccc2occ(C(=O)N[C@H]3CCN(CC(=O)N4CCC[C@H]4C#N)C3)c2c1 [Example 52, N—((S)-1-(2-((S)-2-cyanopyrrolidin-1-yl)-2-oxoethyl)pyrrolidin-3-yl)-5-methylbenzofuran-3-carboxamide] | 13.6 nM | 0.5% |  | 
4 | Cc1ccc2c(C(=O)N[C@H]3CCN(CC(=O)N4CCC[C@H]4C#N)C3)coc2c1 [Example 53, N—((S)-1-(2-((S)-2-cyanopyrrolidin-1-yl)-2-oxoethyl)pyrrolidin-3-yl)-6-methylbenzofuran-3-carboxamide] | 17.7 nM | 1.3% |  | 
5 | N#C[C@@H]1CCCN1C(=O)CN1CC[C@H](NC(=O)c2cccc3occc23)C1 [Example 55, N—((S)-1-(2-((S)-2-cyanopyrrolidin-1-yl)-2-oxoethyl)pyrrolidin-3-yl)benzofuran-4-carboxamide] | 20 nM | 1.1% |  | 
6 | N#C[C@@H]1CCCN1C(=O)CN1CC[C@H](NC(=O)c2ccc3occc3c2)C1 [Example 56, N—((S)-1-(2-((S)-2-cyanopyrrolidin-1-yl)-2-oxoethyl)pyrrolidin-3-yl)benzofuran-5-carboxamide] | 45.2 nM | 2.4% |  | 
7 | N#C[C@@H]1CCCN1C(=O)CN1CC[C@H](NC(=O)c2cccc3ccoc23)C1 [Example 58, N—((S)-1-(2-((S)-2-cyanopyrrolidin-1-yl)-2-oxoethyl)pyrrolidin-3-yl)benzofuran-7-carboxamide] | 62.5 nM |  | No inhibition** | 
8 | N#C[C@@H]1CCCN1C(=O)CN1CC[C@H](NS(=O)(=O)c2cc3ccccc3o2)C1 [Example 59, N—((S)-1-(2-((S)-2-cyanopyrrolidin-1-yl)-2-oxoethyl)pyrrolidin-3-yl)benzofuran-2-sulfonamide] |  |  | No inhibition** | 33.4%
9 | N#C[C@@H]1CCCN1C(=O)CN1CC[C@H](NS(=O)(=O)c2cc3ccccc3s2)C1 [Example 60, N—((S)-1-(2-((S)-2-cyanopyrrolidin-1-yl)-2-oxoethyl)pyrrolidin-3-yl)benzo[b]thiophene-2-sulfonamide] |  |  | No inhibition** | 44.2%
10 | N#C[C@@H]1CCCN1C(=O)CN1CC[C@H](Oc2cccc3ccccc23)C1 [Example 62, (S)-1-(2-((S)-3-(naphthalen-1-yloxy)pyrrolidin-1-yl)acetyl)pyrrolidine-2-carbonitrile] | 75.1 nM |  | No inhibition** | 
11 | N#C[C@@H]1CCCN1C(=O)CN1CC[C@H](Oc2ccc3ncccc3c2)C1 [Example 63, (S)-1-(2-((S)-3-(quinolin-6-yloxy)pyrrolidin-1-yl)acetyl)pyrrolidine-2-carbonitrile] | 130 nM |  | No inhibition** | 
12 | N#C[C@@H]1CCCN1C(=O)CN1CC[C@H](Oc2ccc3c(c2)OCO3)C1 [Example 67, (S)-1-(2-((S)-3-(benzo[d][1,3]dioxol-5-yloxy)pyrrolidin-1-yl)acetyl)pyrrolidine-2-carbonitrile] |  |  | No inhibition** | 64%
13 | N#C[C@@H]1CCCN1C(=O)CN1CC[C@H](Oc2cc3ccccc3cn2)C1 [Example 69, (S)-1-(2-((S)-3-(isoquinolin-3-yloxy)pyrrolidin-1-yl)acetyl)pyrrolidine-2-carbonitrile] | 64.3 nM | 8% |  | 
14 | N#C[C@@H]1CCCN1C(=O)CN1CC[C@H](Oc2nccc3scc(Br)c23)C1 [Example 70, (S)-1-(2-((S)-3-((3-bromothieno[3,2-c]pyridin-4-yl)oxy)pyrrolidin-1-yl)acetyl)pyrrolidine-2-carbonitrile] | 31.9 nM | 22.6% |  | 
15 | N#C[C@@H]1CCCN1C(=O)CN1CC[C@H](Oc2ccc(Cl)c3ccccc23)C1 [Example 71, (S)-1-(2-((S)-3-((4-chloronaphthalen-1-yl)oxy)pyrrolidin-1-yl)acetyl)pyrrolidine-2-carbonitrile] | 42.6 nM |  | No inhibition** | 
16 | N#C[C@@H]1CCCN1C(=O)CN1CC[C@H](Oc2ccccc2-c2cc[nH]n2)C1 [Example 72, (S)-1-(2-((S)-3-(2-(1H-pyrazol-3-yl)phenoxy)pyrrolidin-1-yl)acetyl)pyrrolidine-2-carbonitrile] | 101 nM | 0.8% |  | 
17 | N#C[C@@H]1CCCN1C(=O)CN1CC[C@H](Oc2cccc3c(Cl)ncnc23)C1 [Example 73, (S)-1-(2-((S)-3-((4-chloroquinazolin-8-yl)oxy)pyrrolidin-1-yl)acetyl)pyrrolidine-2-carbonitrile] |  | 1.2% |  | 97.1%
18 | N#C[C@@H]1CCCN1C(=O)CN1CC[C@H](Oc2ccc3ncnc(Cl)c3c2)C1 [Example 74, (S)-1-(2-((S)-3-((4-chloroquinazolin-6-yl)oxy)pyrrolidin-1-yl)acetyl)pyrrolidine-2-carbonitrile] |  |  | No inhibition** | 92.3%
19 | N#C[C@@H]1CCCN1C(=O)CN1CC[C@H](Oc2cccc3c2CCC(=O)N3)C1 [Example 76, (S)-1-(2-((S)-3-((2-oxo-1,2,3,4-tetrahydroquinolin-5-yl)oxy)pyrrolidin-1-yl)acetyl)pyrrolidine-2-carbonitrile] | 53.6 nM |  | No inhibition** | 
20 | N#C[C@@H]1CCCN1C(=O)CN1CC[C@H](Oc2ccc3c(c2)CCC(=O)N3)C1 [Example 77, (S)-1-(2-((S)-3-((2-oxo-1,2,3,4-tetrahydroquinolin-6-yl)oxy)pyrrolidin-1-yl)acetyl)pyrrolidine-2-carbonitrile] | 82.3 nM | 0.4% |  | 
